{"source": "patent US11008346B2", "about": "“Beta-lactamase inhibitors” (priority 2014, dated 2021)", "key": {"SHV-5 β-lactamase": {"target": "T1, SHV-5 β-lactamase (Klebsiella pneumoniae, UniProt P0A3M1)", "T1 construct": "made in house; host or cells: E. coli BL21(DE3)", "T1 sequence (P0A3M1 22-286)": "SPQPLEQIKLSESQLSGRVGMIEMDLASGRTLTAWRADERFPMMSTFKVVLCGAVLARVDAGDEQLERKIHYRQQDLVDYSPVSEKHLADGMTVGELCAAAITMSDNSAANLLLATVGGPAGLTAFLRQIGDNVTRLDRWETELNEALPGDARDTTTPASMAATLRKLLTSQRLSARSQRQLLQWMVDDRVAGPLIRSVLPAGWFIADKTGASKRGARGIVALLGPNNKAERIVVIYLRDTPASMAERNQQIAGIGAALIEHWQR", "assay": "β-lactamase enzyme inhibition, SHV-5", "assay_type": "biochemical", "summary_of_the_method": "(§1)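 Native untagged enzymes expressed in E. coli BL21(DE3) and purified by cation exchange and gel filtration were preincubated with inhibitor for 15 min at 37° C. Hydrolysis was followed for 10 min: nitrocefin (100 μM final, 486 nm) for OXA-1 and p99 AmpC, imipenem (300 nm) for KPC-2, cefotaxime (260 nm) for SHV-5; IC50 from initial rates.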"}, "KPC-2 β-lactamase": {"target": "T2, KPC-2 β-lactamase (Klebsiella pneumoniae, UniProt Q9F663)", "T2 construct": "made in house; host or cells: E. coli BL21(DE3)", "T2 sequence (Q9F663 25-293, looked up)": "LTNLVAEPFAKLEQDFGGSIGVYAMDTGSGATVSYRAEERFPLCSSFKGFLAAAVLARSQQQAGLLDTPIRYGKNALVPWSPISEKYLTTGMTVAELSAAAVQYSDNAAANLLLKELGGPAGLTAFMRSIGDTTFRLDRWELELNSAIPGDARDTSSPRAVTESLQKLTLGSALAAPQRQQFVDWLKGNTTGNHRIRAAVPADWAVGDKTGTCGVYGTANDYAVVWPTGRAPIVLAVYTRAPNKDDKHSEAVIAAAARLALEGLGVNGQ", "assay": "β-lactamase enzyme inhibition, KPC-2", "assay_type": "biochemical", "summary_of_the_method": "as §1"}, "[1]": {"target": "T3, VIM-2 metallo β-lactamase (Pseudomonas aeruginosa, UniProt Q9K2N0)", "T3 construct": "made in house; host or cells: E. coli BL21(DE3)", "assay": "β-lactamase enzyme inhibition, VIM-2", "assay_type": "biochemical", "conditions": "Nitrocefin 100 μM, 486 nm; 15 min at 37° C. preincubation; read-out: IC50 VIM-2 (Class B)", "summary_of_the_method": "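VIM-2 purified by Q sepharose anion exchange (50 mM Hepes pH 7.5, 0-600 mM NaCl gradient, two runs, >90% purity). Enzyme preincubated with inhibitor 15 min at 37° C; nitrocefin 100 μM final, absorbance at 486 nm followed 10 min. IC50 from initial hydrolysis rates versus inhibitor-free controls.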"}, "p99 AmpC β-lactamase": {"target": "T4, p99 AmpC β-lactamase (Enterobacter cloacae, UniProt P05364)", "T4 construct": "made in house; host or cells: E. coli BL21(DE3)", "T4 sequence (P05364 21-381)": "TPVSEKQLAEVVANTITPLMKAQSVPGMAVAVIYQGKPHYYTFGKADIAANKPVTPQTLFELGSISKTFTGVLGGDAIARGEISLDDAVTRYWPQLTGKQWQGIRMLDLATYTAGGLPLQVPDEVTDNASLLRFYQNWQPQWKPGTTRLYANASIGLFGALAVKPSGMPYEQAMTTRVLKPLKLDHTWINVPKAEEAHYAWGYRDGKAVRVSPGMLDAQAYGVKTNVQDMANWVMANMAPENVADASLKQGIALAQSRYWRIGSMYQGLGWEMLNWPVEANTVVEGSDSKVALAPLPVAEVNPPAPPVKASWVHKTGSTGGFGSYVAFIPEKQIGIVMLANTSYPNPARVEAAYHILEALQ", "assay": "β-lactamase enzyme inhibition, p99 AmpC", "assay_type": "biochemical", "summary_of_the_method": "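Native untagged E. cloacae p99 AmpC was expressed in E. coli BL21(DE3) and purified by cation exchange and gel filtration. Enzyme was preincubated with inhibitor at 37°C for 15 min.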"}, "OXA-1 β-lactamase": {"target": "T5, OXA-1 β-lactamase (Escherichia coli, UniProt P13661)", "T5 construct": "made in house; host or cells: E. coli BL21(DE3)", "T5 sequence (P13661 26-276)": "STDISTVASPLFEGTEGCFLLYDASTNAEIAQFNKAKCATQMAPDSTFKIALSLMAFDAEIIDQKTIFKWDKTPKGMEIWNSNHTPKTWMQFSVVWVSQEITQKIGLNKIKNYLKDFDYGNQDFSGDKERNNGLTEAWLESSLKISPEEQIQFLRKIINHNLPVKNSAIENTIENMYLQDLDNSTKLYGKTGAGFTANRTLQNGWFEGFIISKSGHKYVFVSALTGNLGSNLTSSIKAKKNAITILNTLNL", "assay": "β-lactamase enzyme inhibition, OXA-1", "assay_type": "biochemical", "conditions": "Nitrocefin 100 μM, 486 nm; 15 min at 37° C. preincubation; read-out: IC50 OXA-1 (Class D)", "summary_of_the_method": "as §1"}, "[2]": {"tested_on": "E. coli ESBL4 expressing CTX-M-15", "assay": "broth microdilution MIC, E. coli CTX-M-15", "assay_type": "cell-based", "conditions": "Fixed CAZ (ceftazidime) 4 μg/mL", "summary_of_the_method": "(§2)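 Visual MIC readout after 16-20 hours at 37° C, reflecting compound concentration that restores growth inhibition by a beta-lactam held constant at 4 μg/mL. Compound was titrated 2-fold, 32 to 0.25 μg/mL final, in cation-adjusted Mueller Hinton broth.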"}, "[3]": {"tested_on": "E. cloacae 144200 expressing Class C P99 AmpC", "assay": "broth microdilution MIC, E. cloacae P99", "assay_type": "cell-based", "conditions": "Fixed CAZ (ceftazidime) 4 μg/mL", "summary_of_the_method": "as §2"}, "[4]": {"tested_on": "K. pneumoniae 156319 expressing KPC-3", "assay": "broth microdilution MIC, K. pneumoniae KPC-3", "assay_type": "cell-based", "conditions": "Fixed Mero (meropenem) 4 μg/mL", "summary_of_the_method": "as §2"}, "[5]": {"tested_on": "P. aeruginosa Ps296 expressing VIM-2", "assay": "broth microdilution MIC, P. aeruginosa VIM-2", "assay_type": "cell-based", "conditions": "Fixed Mero (meropenem) 4 μg/mL", "from_the_text": "(§3) To determine the ability of test compounds to potentiate the inhibition of the growth of bacterial strains that produce beta-lactamase enzymes, classic cell based broth microdilution MIC assays were employed. Six bacteria strains producing beta-lactamase enzymes were used: E. coli expressing the Class A Extended Spectrum Beta-Lactamase (ESBL) CTX-M-15, E. cloacae expressing the Class C P99, K. pneumoniae expressing the Class A carbapenemase KPC-3, P. aeruginosa expressing the Class B carbapenemase VIM-2, K pneumoniae expressing the class A carbapenemase KPC-2 and the class B carbapenemase VIM-4, and S. aureus producing the Class A penicillinase PC-1. The assay was conducted in Cation Adjusted Mueller Hinton Broth (CAMHB, BD #212322, BD Diagnostic Systems, Sparks, Md.). Bacteria strains were grown for 3-5 hours in CAMBH broth. Test compounds were added to a microtiter plate in 2-fold serial dilutions in CAMHB in a final concentration range of 32 μg/mL to 0.25 μg/ml. An overlay of CAMHB containing a Beta-lactam was added to the compounds at a final static concentration of 4 μg/ml. […] In addition to the titration of test compounds the MICs of a panel of control beta-lactams is also tested to ensure the strains are behaving consistently from test to test. Once the test compound and antibiotics are added the plates can be inoculated according to CLSI broth microdilution method. After inoculation the plates are incubated for 16-20 hours at 37° C., then the Minimal Inhibitory Concentration (MIC) of the test compound is determined visually.\n(§4) Using the methodology described above, examples of the current invention were evaluated for their ability to inhibit the growth of β-lactamase-producing bacteria in the presence of a β-lactam antibiotic.\n(§5) Representative results are shown in Table 4 where A represents an MIC of the fixed β-lactam antibiotic in the presence of >32 µg/mL of a β-lactamase inhibitor of exemplary compounds, B represents the MIC in the presence of between 8 and 32 µg/mL of a β-lactamase inhibitor of exemplary compounds, and C represents the MIC in the presence of ≤4 µg/mL of a β-lactamase inhibitor of exemplary compounds. NT=Not Tested."}, "[6]": {"tested_on": "K. pneumoniae A-1797 expressing KPC-2 and VIM-4", "assay": "broth microdilution MIC, K. pneumoniae KPC-2 and VIM-4", "assay_type": "cell-based", "conditions": "Fixed Mero (meropenem) 4 μg/mL", "summary_of_the_method": "as §2"}, "[7]": {"tested_on": "S. aureus MSSA-7 producing penicillinase PC-1", "assay": "broth microdilution MIC, S. aureus PC-1", "assay_type": "cell-based", "conditions": "Fixed Pip (piperacillin) 4 μg/mL", "from_the_text": "as §3, §4, §5"}, "[8]": {"conditions": "imipenem substrate, 300 nm, 15 min at 37° C. preincubation, read-out: IC50 KPC-2 (Class A)"}}, "note": "Read-outs that look alike come from different tables or passages of the source.", "data": [{"molecule": "NC(=O)CCC(=O)N[C@H]1Cc2cccc(C(=O)O)c2OB1O", "note": "[Example 16, (R)-3-(3-Carbamoyl-propionylamino)-2-hydroxy-3,4-dihydro-2H-benzo[e][1,2]oxaborinine-8-carboxylic acid]", "values": [{"measurement": "IC50", "setting": "SHV-5 β-lactamase", "result": "0.1 to 1", "unit": "µM"}, {"measurement": "IC50", "setting": "KPC-2 β-lactamase", "result": "< 0.1", "unit": "µM"}, {"measurement": "IC50", "setting": "[1]", "result": "0.1 to 1", "unit": "µM"}, {"measurement": "IC50", "setting": "p99 AmpC β-lactamase", "result": "< 0.1", "unit": "µM"}, {"measurement": "IC50", "setting": "OXA-1 β-lactamase", "result": "< 0.1", "unit": "µM"}, {"measurement": "MIC of exemplary compounds in presence of fixed β-lactams, E. coli ESBL4 CTX-M-15", "setting": "[2]", "result": "C (C represents the MIC in the presence of ≤4 g/mL of a β-lactamase inhibitor)"}, {"measurement": "MIC of exemplary compounds in presence of fixed β-lactams, E. cl. 144200 p99 AmpC", "setting": "[3]", "result": "C (C represents the MIC in the presence of ≤4 g/mL of a β-lactamase inhibitor)"}, {"measurement": "MIC of exemplary compounds in presence of fixed β-lactams, K.P. 156319 KPC-3", "setting": "[4]", "result": "C (C represents the MIC in the presence of ≤4 g/mL of a β-lactamase inhibitor)"}, {"measurement": "MIC of exemplary compounds in presence of fixed β-lactams, P. aerug. Ps296 VIM-2", "setting": "[5]", "result": "C (C represents the MIC in the presence of ≤4 g/mL of a β-lactamase inhibitor)"}, {"measurement": "MIC of exemplary compounds in presence of fixed β-lactams, K.P. A-1797 KPC-2 VIM-4", "setting": "[6]", "result": "B (B represents the MIC in the presence of between 8 and 32 g/mL of a β-lactamase inhibitor)"}, {"measurement": "MIC of exemplary compounds in presence of fixed β-lactams, S. aureus MSSA-7 PC-1", "setting": "[7]", "result": "C (C represents the MIC in the presence of ≤4 g/mL of a β-lactamase inhibitor)"}]}, {"molecule": "O=C(CC(F)(F)F)N[C@H]1Cc2cccc(C(=O)O)c2OB1O", "note": "[Example 4, (R)-2-Hydroxy-3-(3,3,3-trifluoro-propionylamino)-3,4-dihydro-2H-benzo[e][1,2]oxaborinine-8-carboxylic acid]", "values": [{"measurement": "IC50", "setting": "SHV-5 β-lactamase", "result": "< 0.1", "unit": "µM"}, {"measurement": "IC50", "setting": "KPC-2 β-lactamase; [8]", "result": "0.1 to 1", "unit": "µM"}, {"measurement": "IC50", "setting": "[1]", "result": "1 to 10", "unit": "µM"}, {"measurement": "IC50", "setting": "p99 AmpC β-lactamase", "result": "< 0.1", "unit": "µM"}, {"measurement": "IC50", "setting": "OXA-1 β-lactamase", "result": "< 0.1", "unit": "µM"}, {"measurement": "MIC of exemplary compounds in presence of fixed β-lactams, E. coli ESBL4 CTX-M-15", "setting": "[2]", "result": "C (C represents the MIC in the presence of ≤4 g/mL of a β-lactamase inhibitor)"}, {"measurement": "MIC of exemplary compounds in presence of fixed β-lactams, E. cl. 144200 p99 AmpC", "setting": "[3]", "result": "C (C represents the MIC in the presence of ≤4 g/mL of a β-lactamase inhibitor)"}, {"measurement": "MIC of exemplary compounds in presence of fixed β-lactams, K.P. 156319 KPC-3", "setting": "[4]", "result": "C (C represents the MIC in the presence of ≤4 g/mL of a β-lactamase inhibitor)"}, {"measurement": "MIC of exemplary compounds in presence of fixed β-lactams, P. aerug. Ps296 VIM-2", "setting": "[5]", "result": "C (C represents the MIC in the presence of ≤4 g/mL of a β-lactamase inhibitor)"}, {"measurement": "MIC of exemplary compounds in presence of fixed β-lactams, K.P. A-1797 KPC-2 VIM-4", "setting": "[6]", "result": "B (B represents the MIC in the presence of between 8 and 32 g/mL of a β-lactamase inhibitor)"}, {"measurement": "MIC of exemplary compounds in presence of fixed β-lactams, S. aureus MSSA-7 PC-1", "setting": "[7]", "result": "C (C represents the MIC in the presence of ≤4 g/mL of a β-lactamase inhibitor)"}]}, {"molecule": "CC(O)(O)C(=O)N[C@H]1Cc2cccc(C(=O)O)c2OB1O", "note": "[Example 3, (R)-3-(2,2-Dihydroxy-propionylamino)-2-hydroxy-3,4-dihydro-2H-benzo[e][1,2]oxaborinine-8-carboxylic acid]", "values": [{"measurement": "IC50", "setting": "SHV-5 β-lactamase", "result": "0.1 to 1", "unit": "µM"}, {"measurement": "IC50", "setting": "KPC-2 β-lactamase; [8]", "result": "0.1 to 1", "unit": "µM"}, {"measurement": "IC50", "setting": "[1]", "result": "1 to 10", "unit": "µM"}, {"measurement": "IC50", "setting": "p99 AmpC β-lactamase", "result": "< 0.1", "unit": "µM"}, {"measurement": "IC50", "setting": "OXA-1 β-lactamase", "result": "< 0.1", "unit": "µM"}, {"measurement": "MIC of exemplary compounds in presence of fixed β-lactams, E. coli ESBL4 CTX-M-15", "setting": "[2]", "result": "C (C represents the MIC in the presence of ≤4 g/mL of a β-lactamase inhibitor)"}, {"measurement": "MIC of exemplary compounds in presence of fixed β-lactams, E. cl. 144200 p99 AmpC", "setting": "[3]", "result": "C (C represents the MIC in the presence of ≤4 g/mL of a β-lactamase inhibitor)"}, {"measurement": "MIC of exemplary compounds in presence of fixed β-lactams, K.P. 156319 KPC-3", "setting": "[4]", "result": "C (C represents the MIC in the presence of ≤4 g/mL of a β-lactamase inhibitor)"}, {"measurement": "MIC of exemplary compounds in presence of fixed β-lactams, P. aerug. Ps296 VIM-2", "setting": "[5]", "result": "C (C represents the MIC in the presence of ≤4 g/mL of a β-lactamase inhibitor)"}, {"measurement": "MIC of exemplary compounds in presence of fixed β-lactams, K.P. A-1797 KPC-2 VIM-4", "setting": "[6]", "result": "A (A represents an MIC of the fixed β-lactam antibiotic in the presence of >32 g/mL of a β-lactamase inhibitor)"}, {"measurement": "MIC of exemplary compounds in presence of fixed β-lactams, S. aureus MSSA-7 PC-1", "setting": "[7]", "result": "C (C represents the MIC in the presence of ≤4 g/mL of a β-lactamase inhibitor)"}]}]}
